Values of other authors in patent US20170273596A1, “METHOD FOR MONITORING SWALLOWING” (NESTEC S.A., priority 2014, published 2017).

Key:
[1] = database Episuite 4.1
[2] = database Episuite 4.1; remark: listed apart in the source

Row | Compound | Volatility: Air/water partition coefficient log K [w/v] [1] | Lipophilicity: Oil/Water partition coefficient log Kow [w/v] [2]
1 | 2-Methylpropanal | −2.31 | –
2 | CC(=O)C(C)=O [2,3-Butanedione] | −5.09 | −1.34
3 | CCC(=O)C(C)=O [2,3-Pentanedione] | −4.97 | −0.85
4 | CCC(C)C=O (stereo not drawn) [2-Methylbutanal] | −2.20 | 1.23
5 | CC(C)CC=O [3-Methylbutanal] | −2.19 | 1.23
6 | CC=O [Acetaldehyde] | −2.56 | −0.17
7 | CSC [Dimethylsulfide] | −1.49 | 0.92
8 | CCCC(=O)OCC [Ethylbutyrate] | −1.79 | 1.85
9 | C=C(C)[C@H]1CC=C(C)CC1 [Limonene] | 0.12 | 4.38
10 | CS [Methanethiol] | −0.97 | 0.78
11 | COc1cc(C=O)ccc1O [Vanillin] | −8.47 | 1.05
